Test results: ChEMBL document CHEMBL1201862, “PubChem BioAssay data set” (2004)
Activity calls are given as the source filed them.

Experiments:
[1] = target: Protein-tyrosine kinase 2-beta (Homo sapiens, UniProt Q14289);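 further: potency of inhibitors of PYK2 kinase phosphorylation of poly-GT substrate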
[2] = Luminescence Cell-Based Dose Confirmation HTS to Identify Inhibitors of Polyadenylation.; type: functional
[3] = Luminescence Cell-Based Dose Confirmation HTS to Identify Activators of 5'UTR Stem-Loop Driven Alpha-Synuclein mRNA Translation in H4 Neuroglioblastoma Cells. [Related pubchem assays: 1829 (Project Summary), 1814 (Primary HTS)]; type: functional
[4] = Luminescence Cell-Based Dose Response HTS to Identify Activators of Luciferase Translation or Activity in H4 […] Cells. [Related pubchem assays: 1829 (Project Summary), 1814 (Primary HTS)]; type: functional
H4 = experiment: Luminescence Cell-Based Dose Response HTS to Identify Activators of 5'UTR Stem-Loop Driven Prion Protein mRNA Translation in H4 Neuroglioblastoma Cells. [Related pubchem assays: 1829 (Project Summary), 1814 (Primary HTS)]; type: functional; settings: Homo sapiens
[5] = general cell-killing toxicity readout – plate reader, dry powder samples, cytotoxicity control for PAX8 inhibitor project, dose response (AID 743021); type: functional, cell-based
[6] = target: T1, Oxysterols receptor LXR-beta (Homo sapiens, UniProt P55055); experiment: LXR agonists, Gal4 luciferase reporter, dose response, counter-screen for ssDAF-12 agonist project, cell-based, luminescence, HEK293, S. stercoralis campaign (AID 720737); type: functional; settings: read-out: IC50 (the source's name)
T1 sequence (P55055 whole entry): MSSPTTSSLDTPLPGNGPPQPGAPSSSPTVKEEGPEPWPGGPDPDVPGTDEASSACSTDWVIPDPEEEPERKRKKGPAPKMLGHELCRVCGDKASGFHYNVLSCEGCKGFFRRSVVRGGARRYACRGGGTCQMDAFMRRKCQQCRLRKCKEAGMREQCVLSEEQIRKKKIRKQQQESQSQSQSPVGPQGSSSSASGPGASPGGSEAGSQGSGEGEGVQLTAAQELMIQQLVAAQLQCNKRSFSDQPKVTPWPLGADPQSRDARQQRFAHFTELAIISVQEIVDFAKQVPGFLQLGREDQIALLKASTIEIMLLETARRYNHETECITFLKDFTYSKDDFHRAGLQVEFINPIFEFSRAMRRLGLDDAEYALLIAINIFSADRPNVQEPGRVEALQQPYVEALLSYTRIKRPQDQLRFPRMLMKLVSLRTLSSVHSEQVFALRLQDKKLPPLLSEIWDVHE

[7] = Luminescence Cell-Based Dose Confirmation HTS to Identify Inhibitors of Platelet Dense Granule Release. [Related pubchem assays: 1663 (Primary HTS), 1678 (Summary of Project)]; type: functional
[8] = Luminescence-based cell-based high throughput dose response assay to identify activators of the DAF-12 from the parasite S. stercoralis (ssDAF-12).; type: functional
[9] = target: Luciferin 4-monooxygenase (Photinus pyralis, UniProt P08659); experiment: inhibition of purified Photinus pyralis luciferase – biochemical, luminescence, dose response (AID 1891)
Chain of Luciferin 4-monooxygenase (P08659 whole entry): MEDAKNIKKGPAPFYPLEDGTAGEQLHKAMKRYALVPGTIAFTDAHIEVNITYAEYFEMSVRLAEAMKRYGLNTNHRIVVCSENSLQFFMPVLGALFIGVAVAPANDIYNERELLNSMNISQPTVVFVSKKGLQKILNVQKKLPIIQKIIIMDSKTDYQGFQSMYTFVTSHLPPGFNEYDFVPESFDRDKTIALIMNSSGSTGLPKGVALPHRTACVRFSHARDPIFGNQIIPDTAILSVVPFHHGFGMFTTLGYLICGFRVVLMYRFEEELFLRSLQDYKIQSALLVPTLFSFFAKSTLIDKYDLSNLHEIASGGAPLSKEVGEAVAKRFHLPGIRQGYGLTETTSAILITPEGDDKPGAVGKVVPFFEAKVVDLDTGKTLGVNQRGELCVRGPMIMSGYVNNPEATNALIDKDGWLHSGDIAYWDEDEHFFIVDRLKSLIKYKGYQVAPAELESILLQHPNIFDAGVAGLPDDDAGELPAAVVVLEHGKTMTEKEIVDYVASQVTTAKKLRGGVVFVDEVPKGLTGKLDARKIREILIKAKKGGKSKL

Protein skinhead-1 = target: T2, Protein skinhead-1 (Caenorhabditis elegans, UniProt P34707); type: functional
T2 sequence (P34707 whole entry): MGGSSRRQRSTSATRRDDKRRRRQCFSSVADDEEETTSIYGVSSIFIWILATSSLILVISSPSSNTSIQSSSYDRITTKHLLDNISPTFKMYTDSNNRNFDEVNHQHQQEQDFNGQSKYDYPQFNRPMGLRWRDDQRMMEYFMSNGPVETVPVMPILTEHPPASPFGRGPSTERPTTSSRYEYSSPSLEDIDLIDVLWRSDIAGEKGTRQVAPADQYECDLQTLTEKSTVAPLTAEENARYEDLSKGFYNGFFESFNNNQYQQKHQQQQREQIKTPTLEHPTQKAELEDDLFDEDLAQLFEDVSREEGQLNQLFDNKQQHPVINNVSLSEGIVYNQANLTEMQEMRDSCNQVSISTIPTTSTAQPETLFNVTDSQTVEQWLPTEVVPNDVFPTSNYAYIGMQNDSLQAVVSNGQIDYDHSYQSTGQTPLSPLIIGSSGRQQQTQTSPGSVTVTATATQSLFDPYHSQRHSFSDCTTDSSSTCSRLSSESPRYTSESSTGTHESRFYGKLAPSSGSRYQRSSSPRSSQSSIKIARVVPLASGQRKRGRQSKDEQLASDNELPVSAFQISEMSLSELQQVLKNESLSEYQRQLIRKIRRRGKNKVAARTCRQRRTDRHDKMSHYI

[10] = target: T1, Oxysterols receptor LXR-beta; type: functional, cell-based
[11] = reduced cellular PGC1a acetyl-lysine signal – cell-based, cherry-picked samples, dose response (AID 720514); type: functional;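 further: potency may reflect raised or lowered acetylation signal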
[12] = M. tuberculosis H37Rv growth inhibitors, H37Rv strain (AID 1626); type: functional
[13] = viability loss in A549 lung cancer cells – cell-based, cherry-picks, […], cytotoxicity control, dose response (AID 1053119); type: functional
Prothrombin = Prothrombin (Homo sapiens, UniProt P00734); experiment: Thrombin 1536 HTS Dose Response Confirmation. [Related pubchem assays: 1046 (Thrombin 1536 HTS; hits were confirmed in this assay)]; type: functional
[14] = A549 cell cytotoxicity, dose response, cytotoxicity control, plate reader, cherry-pick, antagonist series (AID 743412); type: functional, cell-based
[15] = blockade of melanocortin 4 receptor signaling – cell-based, plate reader, cherry pick, counter-screen for LGR2 antagonist project, dose response (AID 743444); type: functional;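 further: transfected HEK 293 cells stimulated with alpha-MSH peptide; potency of inhibitors of the alpha-MSH evoked signal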
[16] = viability loss in HEK293 cells – cell-based, plate reader, cherry-picked samples, cytotoxicity control, dose response (AID 743446); type: functional
[17] = toxicity toward HepG2 liver cells – cell-based, plate reader, cherry-pick, antagonist series, cytotoxicity control, dose response (AID 743416); type: functional
[18] = target: E3 ubiquitin-protein ligase Mdm2 (Homo sapiens, UniProt Q00987); experiment: MDM2-luc reporter signal enhancers, multi-concentration potency testing, MDM2 ubiquitin-protein ligase inhibitor program, whole-cell format, luminescence detection, 384-well microplate (AID 1394); type: functional;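 further: MDM2 E3 inhibitors raise luminescence so EC50 is for signal enhancement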
Chain of E3 ubiquitin-protein ligase Mdm2 (Q00987 whole entry): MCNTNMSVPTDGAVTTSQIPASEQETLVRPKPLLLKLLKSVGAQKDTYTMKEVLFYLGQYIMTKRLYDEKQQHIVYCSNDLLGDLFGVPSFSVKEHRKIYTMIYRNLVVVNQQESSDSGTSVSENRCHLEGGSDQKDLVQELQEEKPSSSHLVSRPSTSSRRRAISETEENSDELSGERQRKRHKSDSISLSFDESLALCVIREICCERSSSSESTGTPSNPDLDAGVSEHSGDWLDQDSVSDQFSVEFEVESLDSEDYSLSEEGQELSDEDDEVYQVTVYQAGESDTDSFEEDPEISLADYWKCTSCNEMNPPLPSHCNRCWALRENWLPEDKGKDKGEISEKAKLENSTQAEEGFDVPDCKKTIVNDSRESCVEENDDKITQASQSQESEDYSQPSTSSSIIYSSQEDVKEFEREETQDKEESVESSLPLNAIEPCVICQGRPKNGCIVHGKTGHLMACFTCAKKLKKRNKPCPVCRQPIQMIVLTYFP

Chain of Protein-tyrosine kinase 2-beta (Q14289 whole entry): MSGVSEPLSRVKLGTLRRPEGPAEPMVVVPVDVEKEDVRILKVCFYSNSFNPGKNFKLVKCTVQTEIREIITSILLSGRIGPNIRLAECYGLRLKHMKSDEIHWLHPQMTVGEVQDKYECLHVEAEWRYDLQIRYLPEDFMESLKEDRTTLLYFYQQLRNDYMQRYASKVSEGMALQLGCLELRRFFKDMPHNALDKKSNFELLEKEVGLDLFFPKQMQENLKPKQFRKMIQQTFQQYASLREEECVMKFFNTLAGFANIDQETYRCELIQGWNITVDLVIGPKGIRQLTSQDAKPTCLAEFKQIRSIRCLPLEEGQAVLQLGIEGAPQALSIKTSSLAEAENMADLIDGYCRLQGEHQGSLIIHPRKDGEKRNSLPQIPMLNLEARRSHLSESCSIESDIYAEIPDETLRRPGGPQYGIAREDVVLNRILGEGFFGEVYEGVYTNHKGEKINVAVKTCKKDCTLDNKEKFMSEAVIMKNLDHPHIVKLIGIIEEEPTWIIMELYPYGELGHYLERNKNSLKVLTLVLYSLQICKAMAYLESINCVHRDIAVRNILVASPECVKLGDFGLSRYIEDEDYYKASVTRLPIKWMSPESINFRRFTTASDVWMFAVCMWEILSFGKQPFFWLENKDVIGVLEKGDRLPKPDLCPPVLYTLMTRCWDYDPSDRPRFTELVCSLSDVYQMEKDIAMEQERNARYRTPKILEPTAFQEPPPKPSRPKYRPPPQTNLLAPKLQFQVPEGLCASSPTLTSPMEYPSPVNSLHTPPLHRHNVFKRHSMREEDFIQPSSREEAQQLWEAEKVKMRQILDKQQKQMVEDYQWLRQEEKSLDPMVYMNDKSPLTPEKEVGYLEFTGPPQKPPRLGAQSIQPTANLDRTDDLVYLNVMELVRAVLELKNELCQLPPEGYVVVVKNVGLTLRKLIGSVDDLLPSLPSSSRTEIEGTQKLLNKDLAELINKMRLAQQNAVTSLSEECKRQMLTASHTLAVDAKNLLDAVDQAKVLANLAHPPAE

COCCN(Cc1ccccc1)P(=O)(O)c1ccccc1OCC(=O)O
IC50 [1]: 7.64 µM (active)

COC(=O)c1cc(C(=O)N2CCN(c3cccc(C)c3C)CC2)cc([N+](=O)[O-])c1
EC50 [2]: > 120 µM (not active)

O=C(CSc1ncccc1-c1nc2ccccc2[nH]1)N1CCc2ccccc21
EC50 [3]: 15.1 µM (active) | EC50 [4]: 4.81 µM (active) | EC50 (H4): 21.1 µM (inconclusive) | AC50 [5]: 59.9 µM (active)

COc1cccc(-c2nc(-c3cccs3)no2)c1
EC50 [6]: > 67.6 µM (inactive) | EC50 [7]: > 112 µM (not active) | IC50 [8]: > 67.6 µM (inactive) | EC50 [9]: > 112 µM (not active) | IC50 (Protein skinhead-1): > 100 µM (inactive) | EC50 [10]: > 67.6 µM (inactive) | EC50 (cells): > 67.6 µM (inactive)

O=C(/C=C/c1ccc(N2CCCCC2)c([N+](=O)[O-])c1)c1ccc(O)cc1
AC50 [11]: 28.1 µM (active)

CC(=O)Nc1ccc(Nc2cc(C)nc3c(-c4ccccc4)c(C)nn23)cc1
IC50 [12]: > 100 µM (active)

Cc1ccn2cc(-c3ccc(NC(=O)c4ccco4)cc3)nc2c1
AC50 [13]: > 52 µM (inactive)

Cn1c(=O)c(C(=O)NNC(=O)c2ccccc2Cl)c(O)c2ccccc21
EC50 [2]: > 120 µM (not active)

N=C(NOC(=O)c1ccccc1Cl)c1ccccc1
IC50 [8]: > 67.6 µM (inactive) | EC50 (cells): > 67.6 µM (inactive)

NC(=NOC(=O)c1ccccc1Cl)c1ccccc1
EC50 [6]: > 67.6 µM (inactive) | EC50 [10]: > 67.6 µM (inactive)

CSc1nc(-c2ccccc2)nn1C(=O)c1ccco1
IC50 (Prothrombin): 300 nM (active)

Cc1ccc2c(c1)C1CN(C)CCC1N2C(=O)c1cn(-c2ccccc2)nc1-c1ccccc1 (stereo not drawn)
AC50 [14]: 36.4 µM (active) | AC50 [15]: 55.6 µM (active) | AC50 [16]: 35.3 µM (active) | IC50 (Prothrombin): 3040 nM (active) | AC50 [17]: > 52 µM (inactive)

O=C1NC(=O)c2cc(NC(=O)C3COc4ccccc4O3)ccc21 (stereo not drawn)
EC50 [18]: 6.75 µM (not active)
